Structures are written as SMILES.

In data set [1] the test system is caterpillars of the diamond back moth (Plutella xylostella, resistant strain). Briefly: Plutella test; resistant strain. In kind it is in vivo. As for the experimental part:
To produce a suitable preparation of active compound, 1 part by weight of active compound is mixed with the stated amounts of solvent and emulsifier, and the concentrate is diluted with emulsifier-containing water to the desired concentration.
Cabbage leaves (Brassica oleracea) are treated by being dipped into the active compound preparation of the desired concentration and populated with caterpillars of the diamond back moth (Plutella xylostella, resistant strain) while the leaves are still moist.
After the desired period of time, the kill in % is determined. 100% means that all caterpillars have been killed; 0% means that none of the caterpillars have been killed.

For data set [2], the system named is caterpillars of the diamond back moth (Plutella xylostella). Briefly: Plutella test. In kind it is in vivo. The protocol:
(§1) [table] To produce a suitable preparation of active compound, 1 part by weight of active compound is mixed with the stated amounts of solvent and emulsifier, and the concentrate is diluted with emulsifier-containing water to the desired concentration. Cabbage leaves (Brassica oleracea) are treated by being dipped into the active compound preparation of the desired concentration and populated with caterpillars of the diamond back moth (Plutella xylostella) while the leaves are still moist. After the desired period of time, the kill in % is determined. 100% means that all caterpillars have been killed; 0% means that none of the caterpillars have been killed.

The subject of data set [3] is caterpillars of the army worm (Spodoptera exigua). In words: Spodoptera exigua test. It counts as in vivo. The protocol: as §1, with “army worm (Spodoptera exigua)” for “diamond back moth (Plutella xylostella)”
Data set [4] deals with caterpillars of the army worm (Spodoptera frugiperda). Briefly: Spodoptera frugiperda test (cabbage leaves dipped). It counts as in vivo. As for the experimental part: [table] To produce a suitable preparation of active compound, 1 part by weight of active compound is mixed with the stated amount of solvent and the stated amount of emulsifier, and the concentrate is diluted with emulsifier-containing water to the desired concentration. Cabbage leaves (Brassica oleracea) are treated by being dipped into the active compound preparation of the desired concentration and populated with caterpillars of the army worm (Spodoptera frugiperda) while the leaves are still moist. After the desired period of time, the kill in % is determined. 100% means that all caterpillars have been killed; 0% means that none of the caterpillars have been killed.

The subject of data set [5] is larvae of the mustard beetle (Phaedon cochleariae). Briefly: Phaedon test (spray treatment). In kind it is in vivo. The method, boiled down:
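Chinese cabbage leaf disks sprayed with compound diluted in emulsifier-containing water, dried, then infested with mustard beetle larvae. After a set period, mortality scored in %: 100% all larvae dead, 0% none dead.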

Data set [6] deals with common spidermite (Tetranychus urticae). Briefly: Tetranychus test. It counts as in vivo. The settings on record: 500 ppm, spray, Phaseolus vulgaris disks.
Data set [7] concerns larvae of the mustard beetle (Phaedon cochleariae). Briefly: Phaedon larvae test (cabbage leaves dipped). It counts as in vivo. In outline:
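Cabbage (Brassica oleracea) leaves dipped in compound emulsion diluted in water to the test concentration, then infested with Phaedon cochleariae larvae while still moist. After the set period, % kill is scored (100% = all larvae dead, 0% = none).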

Data set [8] in a line: logP determination by HPLC on reversed-phase column (C 18), EEC Directive 79/831 Annex V.A8. It counts as physicochemical. The settings on record: reversed-phase C 18, 43° C., acid range (0.1% aqueous phosphoric acid, acetonitrile), marked a). In outline: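 Reversed-phase C18 HPLC at 43° C, per EEC Directive 79/831 Annex V.A8, acid range: 0.1% aqueous phosphoric acid with linear 10–90% acetonitrile gradient. logP derived from retention time by linear interpolation between calibrating unbranched alkan-2-ones (C3–C16) of known logP.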

Setting [9] is: 500 ppm, leaf dip, Brassica oleracea.

Take `O=C1C(O)=C(c2ccccc2Cl)C(=O)N1C1CCCC(C(F)(F)F)C1` (centres unmarked) [Example 214]: the “activity in the Plutella test, resistant strain” value in data set [1] is reported as “good activity”. In addition, the “Kill rate in % after 7 d” value in data set [1] (500 ppm, leaf dip, resistant strain) is 100%; in data set [2] (500 ppm, leaf dip), 100%; in data set [3] (500 ppm, leaf dip), 100%; in data set [4] (setting [9]), 100%; in data set [5] (100 g/ha, spray, Brassica pekinensis disks) it was 100%; in data set [7] (setting [9]), 100%. The “activity in the Plutella test” value in data set [2] is recorded as “good activity”. Moreover, in data set [3], the “activity in the Spodoptera exigua test” value is “good activity”. For the same compound, in data set [4], the “activity in the Spodoptera frugiperda test (leaf dip)” value is recorded as “good activity”. Besides, the “activity in the Phaedon test (spray treatment)” value in data set [5] was “good activity”. The “Kill rate in % after 5 d” value in data set [6] is listed as 90%. The “activity in the Phaedon larvae test” value in data set [7] was “good activity”. Further, in data set [8], the logP entry was “logP = 3.53^a)”.

For the origin of these results see patent US20090099192A1, “Substituted 1H-pyrrole-2,5-diones” (Bayer CropScience AG, priority 2004, published 2009).
